Data as given in article PMC9687610, “Adenosine-Mimicking Derivatives of 3-Aminopyrazine-2-Carboxamide: Towards Inhibitors of Prolyl-tRNA Synthetase with Antimycobacterial Activity” (Biomolecules, 2022).
pIC50: −log10 of the molar value. Values after ≈ are worked out from the molar mass of the structure shown. Where two headings read alike, the source gives them in different places.

What was measured:
[1] = system: Pseudomonas aeruginosa CCM 3955 (ATCC 27853); test: Antibacterial microdilution broth (EUCAST), PA; format: cell-based; details: Pseudomonas aeruginosa; read after 24 h; read-out: PA MIC
[2] = system: Candida krusei CCM 8271 (ATCC 6258); test: Antifungal microdilution broth (EUCAST), CK; format: cell-based; details: Pichia kudriavzevii; read after 24 h; read-out: CK MIC
[3] = system: Klebsiella pneumoniae CCM 4415 (ATCC 10031); test: Antibacterial microdilution broth (EUCAST), KP; details: read after 24 h
[4] = system: Staphylococcus epidermidis CCM 4418 (ATCC 12228); test: Antibacterial microdilution broth (EUCAST), SE; format: cell-based; details: read after 24 h, read-out: SE MIC
[5] = system: Aspergillus fumigatus ATCC 204305; test: Antifungal microdilution broth (EUCAST), AF; format: cell-based; details: Aspergillus fumigatus, ATCC204305; read after 24 h; read-out: AF MIC
[6] = system: Candida albicans CCM 8320 (ATCC 24433); test: Antifungal microdilution broth (EUCAST), CA; format: cell-based; details: Candida albicans; read after 24 h; read-out: CA MIC
[7] = system: Staphylococcus aureus subsp. aureus CCM 4223 (ATCC 29213); test: Antibacterial microdilution broth (EUCAST), SA; format: cell-based; details: Staphylococcus aureus; read after 24 h; read-out: SA MIC
[8] = system: Mycobacterium smegmatis DSM 43465 (ATCC 607); test: Microplate Alamar Blue Assay (MABA), M. smegmatis; format: cell-based; details: for MIC: Mycolicibacterium smegmatis, read-out: M. smegmatis MIC
[9] = system: M. aurum DSM 43999 (ATCC 23366); test: Microplate Alamar Blue Assay (MABA), M. aurum; format: cell-based; details: Mycolicibacterium aurum; MABA, resazurin after 72 h; read-out: M. aurum MIC
[10] = system: HepG2 human hepatocellular carcinoma cells; test: In vitro HepG2 cytotoxicity (CellTiter 96); details: for pIC50: Homo sapiens, HepG2, 24 h, read-out: HepG2 IC50, 24 h incubation, * limit = highest evaluated concentration (precipitation in medium), ** over the 1000 µM limit
[11] = system: Mycobacterium tuberculosis H37Ra ITM-M006710 (ATCC 9431); test: Microplate Alamar Blue Assay (MABA), Mtb H37Ra; format: cell-based; details: Middlebrook 7H9 broth pH 6.6, resazurin after 120 h; for MIC: Mycobacterium tuberculosis, 120 h, pH 6.6, MABA, read-out: Mtb H37Ra MIC
[12] = system: Lichtheimia corymbifera CCM 8077; test: Antifungal microdilution broth (EUCAST), LC; format: cell-based; details: Lichtheimia corymbifera, CCM8077; read after 24 h; read-out: LC MIC
[13] = system: Trichophyton interdigitale CCM 8377 (ATCC 9533); test: Antifungal microdilution broth (EUCAST), TI; format: cell-based; details: Trichophyton interdigitale, 72 h, read-out: TI MIC
[14] = system: Candida tropicalis CCM 8264 (ATCC 750); test: Antifungal microdilution broth (EUCAST), CT; format: cell-based; details: Candida tropicalis; read after 24 h; read-out: CT MIC
[15] = system: Escherichia coli CCM 3954 (ATCC 25922); test: Antibacterial microdilution broth (EUCAST), EC; format: cell-based; details: Escherichia coli; read after 24 h; read-out: EC MIC
[16] = system: Candida parapsilosis CCM 8260 (ATCC 22019); test: Antifungal microdilution broth (EUCAST), CP; format: cell-based; details: Lodderomyces parapsilosis; read after 24 h; read-out: CP MIC
[17] = system: Mycobacterium tuberculosis H37Rv CNCTC My 331/88 (ATCC 27294); test: MABA microdilution, Mtb H37Rv; format: cell-based
[18] = system: Staphylococcus aureus subsp. aureus methicillin-resistant (MRSA) CCM 4750 (ATCC 43300); test: Antibacterial microdilution broth (EUCAST), MRSA; format: cell-based; details: Staphylococcus aureus; read after 24 h; read-out: MRSA MIC
[19] = system: Acinetobacter baumannii DSM 30007 (ATCC 19606); test: Antibacterial microdilution broth (EUCAST), ACI; format: cell-based; details: Acinetobacter baumannii; read after 24 h; read-out: ACI MIC
[20] = system: Aspergillus flavus CCM 8363; test: Antifungal microdilution broth (EUCAST), AFla; format: cell-based; details: Aspergillus flavus, CCM8363; read after 24 h; read-out: AFla MIC
[21] = system: Enterococcus faecalis CCM 4224 (ATCC 29212); test: Antibacterial microdilution broth (EUCAST), EF; format: cell-based; details: Enterococcus faecalis; read after 24 h; read-out: EF MIC
Mtb laboratory ID MATI = details: Laboratory ID MATI, cited from earlier work; for Susceptibility: CLSI breakpoints 2021; for Minimum inhibitory concentration: tested and interpreted according to CLSI breakpoints in 2021
Mtb laboratory ID IZAK = details: Laboratory ID IZAK, cited from earlier work; for Susceptibility: CLSI breakpoints 2020; for Minimum inhibitory concentration: tested and interpreted according to CLSI breakpoints in 2020
[22] = Mycobacterium tuberculosis, read-out: Mtb H37Rv MIC
[23] = virulent strain Mtb H37Rv and MDR isolates IZAK, MATI
[24] = Mycobacterium tuberculosis; read-out: Mtb H37Rv MIC

Structure (SMILES)	MIC [1] [µM]	MIC [2] [µM]	KP MIC [3] [µM]	MIC [4] [µM]	MIC [5] [µM]	MIC [6] [µM]	MIC [7] [µM]	MIC ([8]; MABA, resazurin after 48 h) [µg/mL]	MIC [9] [µg/mL]	pIC50 [10]	MIC [11] [µg/mL]	MIC [12] [µM]	MIC [13] [µM]	MIC [14] [µM]	MIC [15] [µM]	MIC [16] [µM]	MIC [17, 22] [µg/mL]	MIC [18] [µM]	MIC [19] [µM]	Susceptibility (Mtb laboratory ID MATI)	also measured
Cc1ccc(C(=O)Nc2nccnc2C(N)=O)cc1 [Compound 4]	> 500	> 500	> 500	> 500	> 500	> 500	> 500	≥ 250	≥ 250	< 4.00	7.81 (≈ 30.5 µM)	> 500	> 500	> 500	> 500	> 500	6.25 (≈ 24.4 µM)	> 500	> 500		activity on Mtb H37Rv and both MDR strains (in words) [17, 23]: significant activity; MIC [20]: > 500 µM; MIC [21]: > 500 µM
NC(=O)c1nccnc1NC(=O)c1ccc(F)cc1 [Compound 12]	> 500	> 500	> 500	> 500	> 500	> 500	> 500	250 (≈ 961 µM)	≥ 500	< 3.60	31.2 (≈ 120 µM)	> 500	> 500	> 500	> 500	> 500	50 (≈ 192 µM)	> 500	> 500		activity on Mtb H37Rv and both MDR strains (in words) [17, 23]: significant activity; MIC [20]: > 500 µM; MIC [21]: > 500 µM
NC(=O)c1nccnc1NC(=O)c1ccc(Cl)cc1 [Compound 15]	> 500	> 125	> 500	> 500	> 125	> 125	> 500		≥ 250	< 4.00	3.91 (≈ 14.1 µM)	> 125	> 125	> 125	> 500	> 125	6.25 (≈ 22.6 µM)	> 500	> 500		activity against M. smegmatis (in words) [8]: high activity; MIC ([8]; 48 h): 3.91 µg/mL (≈ 14.1 µM); activity on Mtb H37Rv and both MDR strains (in words) [17, 23]: significant activity; MIC [20]: > 125 µM; MIC [21]: > 500 µM
NC(=O)c1nccnc1NC(=O)c1ccc(Br)cc1 [Compound 18]	> 500	> 125	> 500	> 500	> 125	> 125	> 500	125 (≈ 389 µM)	≥ 250	< 4.60	1.95 (≈ 6.07 µM)	> 125	> 125	> 125	> 500	> 125	6.25 (≈ 19.5 µM)	> 500	> 500		solubility in the testing medium (in words) ([10]; HepG2 cell culture medium): low solubility; MIC [20]: > 125 µM; MIC [21]: > 500 µM
CC[C@@H](CO)NCCN[C@@H](CC)CO [EMB, ethambutol]											0.5 (≈ 2.45 µM)									sensitive	Minimum inhibitory concentration (Mtb laboratory ID MATI): 0.5 µg/mL (≈ 2.45 µM); MIC [17, 24]: 0.39 µg/mL (≈ 1.91 µM); Susceptibility (Mtb laboratory ID IZAK): sensitive; Minimum inhibitory concentration (Mtb laboratory ID IZAK): 0.5 µg/mL (≈ 2.45 µM)
NNC(=O)c1ccncc1 [INH, isoniazid]								15.6 (≈ 114 µM)	3.91 (≈ 28.5 µM)	< 3.00	0.25 (≈ 1.82 µM)									resistant	Mtb H37Ra MIC ([11]; MABA): 0.25 to 0.5 µg/mL; MIC [17, 24]: 0.2 µg/mL (≈ 1.46 µM)
NC(=O)c1cnccn1 [PZA, pyrazinamide]																				resistant	Minimum inhibitory concentration (Mtb laboratory ID MATI): > 128 µg/mL; Susceptibility (Mtb laboratory ID IZAK): resistant; Minimum inhibitory concentration (Mtb laboratory ID IZAK): > 16 µg/mL
CO[C@H]1/C=C/O[C@@]2(C)Oc3c(C)c(O)c4c(O)c(c(/C=N/N5CCN(C)CC5)c(O)c4c3C2=O)NC(=O)/C(C)=C\C=C\[C@H](C)[C@H](O)[C@@H](C)[C@@H](O)[C@@H](C)[C@H](OC(C)=O)[C@@H]1C [RIF, rifampicin]								12.5 (≈ 15.2 µM)	0.39 (≈ 0.474 µM)	< 3.30	0.003 (≈ 0.00365 µM)									resistant	Minimum inhibitory concentration (Mtb laboratory ID MATI): > 8 µg/mL; Susceptibility (Mtb laboratory ID IZAK): resistant; Minimum inhibitory concentration (Mtb laboratory ID IZAK): > 8 µg/mL
[H]/N=C(/N)N[C@H]1[C@H](O)[C@@H](O)[C@H](O[C@@H]2O[C@@H](C)[C@](O)(C=O)[C@H]2O[C@@H]2O[C@@H](CO)[C@H](O)[C@@H](O)[C@@H]2NC)[C@@H](N/C(N)=N\[H])[C@@H]1O [STM, streptomycin]											0.5 (≈ 0.86 µM)									resistant	Minimum inhibitory concentration (Mtb laboratory ID MATI): > 16 µg/mL; Susceptibility (Mtb laboratory ID IZAK): resistant; Minimum inhibitory concentration (Mtb laboratory ID IZAK): 4 µg/mL (≈ 6.88 µM)
